# Source: US20060014740A1 (priority 2003, published 2006)
# Counter-ions that a name gives are not always drawn. Like-named read-outs stand apart in the source and are kept apart here.
# Legend:
# [1] = test system: LNCaP human prostate cancer cells; experiment: SRB cytotoxicity assay, LNCaP; format: cell-based; settings: Homo sapiens
# Procedure: (§1) For in vitro cytotoxicity screening, 1000 to 5000 cells were plated into each well of 96-well plates depending on growth rate, and exposed to different concentrations of a test compound for 96 h in three to five replicates. All the compounds were dissolved in dimethyl sulfoxide at 5 to 20 mM, and diluted to desired concentrations in complete culture medium. Cell numbers at the end of the drug treatment were measured by the SRB assay (Gududuru et al., “Synthesis and Biological Evaluation of Novel Cytotoxic Phospholipids for Prostate Cancer,” Bioorg. Med. Chem. Lett. 14:4919-4923 (2004); Rubinstein et at., “Comparison of in vitro Anticancer-Drug-Screening Data Generated with a Tetrazolium Assay Versus a Protein Assay Against a Diverse Panel of Human Tumor Cell Lines,” J. Naatl, Cancer Inst. 82:1113-1118 (1990), each of which is hereby incorporated by reference in its entirety). Briefly, the cells were fixed with 10% of trichloroacetic acid, stained with 0.4% SRB, and the absorbances at 540 nm was measured using a plate reader (DYNEX Technologies, Chantilly, Va.).
# (§2) The antiproliferative activity of all the synthesized compounds was evaluated against five human prostate cancer cell lines and in RH7777 cells (negative control) using the sulforhodamine B (SRB) assay (see description in Example 5 above).
# (§3) The chosen cell lines represent different basal levels of active AKT and LPL receptor expression (discussed later). Cells were exposed to a wide range of concentrations (0 to 100 μM) of the indicated compound for 96 h. Cell numbers at the end of treatment were measured using the sulforhodamine B (SRB) assay^5.
# (§4) Cells were exposed to a wide range of concentrations (0 to 100 μM) of the particular compound for 96 h in 96 well plates. Cells were fixed with 10% trichloroacetic acid, washed five times with water. The plates were air dried overnight and fixed cells were stained with SRB solution. The cellular protein-bound SRB was measured at 540 nm using a plate reader. Cell numbers at the end of the treatment were measured.
# as §4, with “96-well” for “96 well”, “calculated as a percentage of untreated control.” for “measured.”
# [2] = test system: AKT phosphorylation (Pi-AKT) in LNCaP cells; experiment: AKT phosphorylation by Western blot in LNCaP cells; format: cell-based, human
# Procedure: As another assessment of cytotoxicity, AKT inhibition was measured. […] The immunoblots were visualized by enhanced, chemiluminescence, and changes of relative levels of phospho-AKT compared to total AKT by analog treatment were quantified by densitometric analysis.
# Prostate cell line LNCaP cells were treated with 30 μM of the compound of Formula: [drawing 54]
# for the indicated period and time. The active form of AKT (Pi-AKT) and the β-Actin were quantified by Western blot analysis. […]
# Prostate cell line LNCaP cells were treated with 10 μM of the compound of Formula: [drawing 55]
# for the indicated period and time. The active form of AKT (Pi-AKT) and AKT were quantified by Western blot analysis. […]
# Prostate cell line LNCaP cells were treated with 10 μM of the compound of Formula [drawing 56]
# for the indicated period and time. The active form of AKT (Pi-AKT), AKT and β-Actin were quantified by Western blot analysis. […]
# [3] = test system: RH7777 rat hepatoma cells; experiment: SRB cytotoxicity assay, RH7777 control cell line; format: cell-based; settings: Rattus norvegicus, RH7777, read-out: IC50 RH7777
# Procedure: as §1, §2, §3, §4
# as §4, with “96-well” for “96 well”, “calculated as a percentage of untreated control.” for “measured.”
# [4] = test system: DU-145 human prostate cancer cells; experiment: SRB cytotoxicity assay, DU-145; format: cell-based; settings: Homo sapiens, 96 h
# Procedure: as §1, §2, §3, §4
# as §4, with “96-well” for “96 well”, “calculated as a percentage of untreated control.” for “measured.”
# [5] = test system: PC-3 human prostate cancer cells; experiment: SRB cytotoxicity assay, PC-3; format: cell-based; settings: Homo sapiens, 96 h, read-out: IC50 PC-3
# Procedure: as §1, §2, §3, §4
# as §4, with “96-well” for “96 well”, “calculated as a percentage of untreated control.” for “measured.”
# [6] = test system: PPC-1 human prostate cancer cells; experiment: SRB cytotoxicity assay, PPC-1; format: cell-based; settings: Homo sapiens, PPC-1, 96 h, read-out: IC50 PPC-1
# Procedure: (§5) Dr. Mitchell Steiner at University of Tennessee Health Science Center, kindly provided PPG-1 and TSU-PrI cells.
# as §1, §2, §3, §4
# as §4, with “96-well” for “96 well”, “calculated as a percentage of untreated control.” for “measured.”
# [7] = test system: TSU-Pr1 human prostate cancer cells; experiment: SRB cytotoxicity assay, TSU-Pr1; format: cell-based; settings: Homo sapiens, TSU-Pr1, 96 h, read-out: IC50 TSU-Pr1
# Procedure: as §5, §1, §2, §3, §4
# as §4, with “96-well” for “96 well”, “calculated as a percentage of untreated control.” for “measured.”
# [8] = test system: human breast cancer cell line (MCF-7); experiment: SRB cytotoxicity assay, MCF-7; format: cell-based; settings: Homo sapiens, MCF7, read-out: IC50 MCF-7
# Procedure: as §1
# In vitro cytotoxicity assay was performed by the same sulforhodamine B (SRB) assay (described above). The compounds shown in Table 8 below where tested for activity against the breast cancer and ovarian cancer cell lines.
# as §3, §4
# [9] = stated in the text of the LNCaP AKT experiments (Examples 12-14), test of the IC50 not named, read-out: IC50
# [10] = Example 14, 10 μM, 1 h, (−) control 1.00
# [11] = Table 3, control cell line, 96 h
# [12] = DU-145, read-out: IC50 DU-145, Table 3
# [13] = LNCaP, Table 3, 96 h, read-out: IC50 LNCaP
# [14] = Table 8, breast cancer cell line
# [15] = Table 4, control cell line, 96 h
# [16] = DU-145, read-out: IC50 DU-145, Table 4
# [17] = LNCaP, Table 4, 96 h, read-out: IC50 LNCaP
structure (smiles),measurement,setting,value
CCCCCCCCCCCCCCCCCCNC(=O)[C@H](CO)NC(=O)OC(C)(C)C,IC50,[1]; [9],10.3 µM
same,Relative abundance (Pi-AKT/β-Actin),"[2]; 30 μM, 1 h, (−) control 1.00",1.29
same,Relative abundance (Pi-AKT/β-Actin),"[2]; 30 μM, 2 h",1.01
same,Relative abundance (Pi-AKT/β-Actin),"[2]; 30 μM, 6 h",0.71
same,Relative abundance (Pi-AKT/β-Actin),"[2]; 30 μM, 12 h",0.50
same,Relative abundance (Pi-AKT/β-Actin),"[2]; 30 μM, 24 h",0.32
same,Relative abundance (Pi-AKT/β-Actin),"[2]; 30 μM, 48 h",<0.10
same,Relative abundance (Pi-AKT/β-Actin),"[2]; 30 μM, 72 h",<0.10
same,AKT phosphorylation inhibited to,"[2]; 30 μM, by 12 hours of treatment",50%
CCCCCCCCCCCCCCCCCCNC[C@H](CO)NC.Cl,Time to almost complete inhibition of AKT phosphorylation,"[2]; Example 14, 10 μM",≤ 1 h
same,Relative abundance (Pi-AKT/AKT),[2]; [10],0.07
same,Relative abundance (Pi-AKT/β-Actin),[2]; [10],0.08
same,Relative abundance (Pi-AKT/AKT),"[2]; Example 14, 10 μM, 2 h",0.06
same,Relative abundance (Pi-AKT/β-Actin),"[2]; Example 14, 10 μM, 2 h",0.06
same,Relative abundance (Pi-AKT/AKT),"[2]; Example 14, 10 μM, 3 h",0.04
same,Relative abundance (Pi-AKT/β-Actin),"[2]; Example 14, 10 μM, 3 h",0.04
same,Relative abundance (Pi-AKT/AKT),"[2]; Example 14, 10 μM, 4 h",0.12
same,Relative abundance (Pi-AKT/β-Actin),"[2]; Example 14, 10 μM, 4 h",0.11
same,Relative abundance (Pi-AKT/AKT),"[2]; Example 14, 10 μM, 6 h",0.12
same,Relative abundance (Pi-AKT/β-Actin),"[2]; Example 14, 10 μM, 6 h",0.10
same,Relative abundance (Pi-AKT/AKT),"[2]; Example 14, 10 μM, 8 h",0.14
same,Relative abundance (Pi-AKT/β-Actin),"[2]; Example 14, 10 μM, 8 h",0.11
same,Relative abundance (Pi-AKT/AKT),"[2]; Example 14, 10 μM, 10 h",0.14
same,Relative abundance (Pi-AKT/β-Actin),"[2]; Example 14, 10 μM, 10 h",0.43
"CCCCCCCCCCCCCCCCCCNC(=O)[C@@H]1CSC(C2CCCCC2)N1 (mixture of isomers) [Compound 8, (2RS, 4R)-2-Cyclohexylthiazolidine-4-carboxylic acid octadecylamide]",IC50,[3]; [11],> 20 µM
same,IC50,[4]; [12],> 20 µM
same,IC50,[5]; Table 3,> 20 µM
same,IC50,[1]; [13],12.8 µM
same,IC50,[6]; Table 3,9.3 µM
same,IC50,[7]; Table 3,> 20 µM
same,IC50,[8]; [14],~20 µM
same,melting point,,60 °C
"CCCCCCCCCCCCCCCCCCNC(=O)[C@@H]1CSC(Cc2ccccc2)N1 (mixture of isomers) [Compound 9, (2RS, 4R)-2-Benzylthiazolidine-4-carboxylic acid octadecylamide]",IC50,[3]; [11],> 20 µM
same,IC50,[4]; [12],15.3 µM
same,IC50,[5]; Table 3,16.4 µM
same,IC50,[1]; [13],4.4 µM
same,IC50,[6]; Table 3,4 µM
same,IC50,[7]; Table 3,11.2 µM
same,IC50,[8]; [14],18.7 µM
same,melting point,,80 °C
"CCCCCCCCCCCCCCCCCCNC(=O)[C@@H]1CSC(c2c[nH]c3ccccc23)N1 (mixture of isomers) [Compound 10, (2RS, 4R)-2-(1H-Indol-3yl)-thiazolidine-4-carboxylic acid octadecylamide]",IC50,[3]; [11],> 20 µM
same,IC50,[4]; [12],8.9 µM
same,IC50,[5]; Table 3,11.5 µM
same,IC50,[1]; [13],2.1 µM
same,IC50,[6]; Table 3,1.3 µM
same,IC50,[7]; Table 3,4.4 µM
same,melting point,,125 °C
"CCCCCCCCCCCCCCCCCCNC(=O)[C@@H]1CSC(c2cccnc2)N1 (mixture of isomers) [Compound 11, (2RS, 4R)-2-Pyridin-3-yl-thiazolidine-4-carboxylic acid octadecylamide]",IC50,[3]; [11],10.5 µM
same,IC50,[4]; [12],7.5 µM
same,IC50,[5]; Table 3,9.2 µM
same,IC50,[1]; [13],3.6 µM
same,IC50,[6]; Table 3,2.9 µM
same,IC50,[7]; Table 3,7.8 µM
same,IC50,[8]; [14],9.3 µM
same,melting point,,94 °C
"CCCCCCCCCCCCCCCCCCNC(=O)[C@@H]1CSC(c2cc(F)cc(F)c2)N1 (mixture of isomers) [Compound 23, (2RS, 4R)-2-(3,5-Difluoro-phenyl)-thiazolidine-4-carboxylic acid octadecylamide]",IC50,[3]; [15],> 20 µM
same,IC50,[4]; [16],> 20 µM
same,IC50,[5]; Table 4,> 20 µM
same,IC50,[1]; [17],11.2 µM
same,IC50,[6]; Table 4,10.6 µM
same,IC50,[7]; Table 4,> 20 µM
same,melting point,,113 °C
"CCCCCCCCCCCCCCCCCCNC(=O)[C@@H]1CSC(c2c(Cl)cccc2Cl)N1 (mixture of isomers) [Compound 24, (2RS, 4R)-2-(2,6-Dichloro-phenyl)-thiazolidine-4-carboxylic acid octadecylamide]",IC50,[3]; [15],> 20 µM
same,IC50,[4]; [16],> 20 µM
same,IC50,[5]; Table 4,> 20 µM
same,IC50,[1]; [17],13.1 µM
same,IC50,[6]; Table 4,17.1 µM
same,IC50,[7]; Table 4,~20 µM
same,IC50,[8]; [14],17.7 µM
"CCCCCCCCCCCCCCCCCCNC(=O)[C@@H]1CSC(c2ccc(-c3ccccc3)cc2)N1 (mixture of isomers) [Compound 27-HCI, (2RS, 4R)-2-Biphenyl-4-yl-thiazolidine-4-carboxylic acid octadecylamide Hydrochloride]",IC50,[3]; [15],> 20 µM
same,IC50,[4]; [16],> 20 µM
same,IC50,[5]; Table 4,> 20 µM
same,IC50,[1]; [17],> 20 µM
same,IC50,[6]; Table 4,> 20 µM
same,IC50,[7]; Table 4,> 20 µM
same,IC50,[8]; [14],> 20 µM
CCCCCCCCCCCCCCCCCCCCNC[C@@H](N)CO [S4],IC50,"[3]; Example 10 table, 0 to 100 μM for 96 h",2.9 µM
same,IC50,"[4]; DU-145, read-out: IC50 DU-145, Example 10 table",4.1 µM
same,IC50,[5]; Example 10 table,2.6 µM
same,IC50,"[1]; LNCaP, Example 10 table, 96 h, read-out: IC50 LNCaP",5.1 µM
same,IC50,[6]; Example 10 table,1.9 µM
same,IC50,[7]; Example 10 table,2.2 µM
same,IC50,"[8]; Example 10 table, 96 h",4.6 µM
CCCCCCCCCCCCCCCCCCNC[C@H](CO)NC [drawing 51],IC50,"[3]; Example 11 table, 96 h",> 100 µM
same,IC50,"[4]; DU-145, Example 11 table, read-out: IC50 DU145",> 100 µM
same,IC50,[5]; Example 11 table,> 100 µM
same,IC50,"[1]; LNCaP, Example 11 table, 96 h, read-out: IC50 LNCaP",> 100 µM
same,IC50,[6]; Example 11 table,> 100 µM
same,IC50,[7]; Example 11 table,> 100 µM
same,IC50,"[8]; Example 11 table, 96 h",> 100 µM
CCCCCCCCCCCCCCCCCCNC[C@H](CO)NC.Cl [drawing 55],IC50,[1]; [9],3.3 µM
same,Time to almost complete inhibition of AKT phosphorylation,"[2]; Example 13, 10 μM",≤ 6 h
same,Relative abundance (Pi-AKT/AKT),"[2]; Example 13, 10 μM, 6 h, (−) control 1.00",0.07
same,Relative abundance (Pi-AKT/AKT),"[2]; Example 13, 10 μM, 12 h",0.31
same,Relative abundance (Pi-AKT/AKT),"[2]; Example 13, 10 μM, 24 h",1.02
same,Relative abundance (Pi-AKT/AKT),"[2]; Example 13, 10 μM, 36 h",0.63
same,Relative abundance (Pi-AKT/AKT),"[2]; Example 13, 10 μM, 48 h",0.94
